Data from patent US9981968B2, “Substituted pyrrolo[2,3-d]pyrimidines for the treatment of cancer and proliferative disorders” (Northwestern University, priority 2013, dated 2018).

Columns and labels:
HOP-62 = test: SRB growth assay, HOP-62; format: cell-based; conditions: Homo sapiens, HOP-62 (Non-Small Cell Lung), 48 hours, read-out: Percent viability
Excerpt: (§1) Tested cell lines included, Leukemia: CCRF-CEM, HL-60(TB), MOLT-4, RPMI-8226 and SR; Non-Small Cell Lung: A549/ATCC, EKVX, HOP-62, HOP-92, NCI-H226, NCI-H23, NCI-H322M, NCI-H460 and NCI-H522; Colon: COLO 205, HCC-2998, HCT-116, HCT-15. HT29, KM12 and SW-620; CNS: SF-268, SF-295, SF-539, SNB-19, SNB-75 and U251; Melanoma: LOX IMVI, MALME-3M, M14, MDA-MB-435, SK-MEL-2, SK-MEL-28, SK-MEL-5, UACC-257 and UACC-62; Ovarian: IGR-OV1, OVCAR-3, OVCAR-4, OVCAR-5, OVCAR-8. NCI/ADR-RES and SK-OV-3; Renal: 786-0, A498, ACHN, CAKI-1, RXF 393, SN12C, TK-10 and UO-31; Prostate: DU-145 and PC-3; and Breast: MCF7, MDA-MB-231/ATCC, MDA-MB-468, HS 578T, BT-549 and T-47D.
(§2) The cells were cultured in RPMI1640 media supplemented with 10% Fetal Bovine Serum (FBS), 2 mM glutamine and with 5% CO2 and 37° C. For experiment, 5% of FBS and 50 ug/mL of gentamycin were used. Test articles were 10 μM of NUCL 381-3 or 10 μM NUCL 383-3. The positive control was 10 μM of doxorubicin.
(§3) Cells were plated in 96 well plates. The cells were plated in triplicate. Cells were plated at the densities based on NCI recommendation. Time zero cells (Tz) were fixed the following day with 50% or 80% ice cold Trichloracetic acid (TCA) and washed 5× with water. At 48 hours post addition of treatments, all remaining plates were fixed in 80% ice cold Trichloracetic acid (TCA) and washed 5× with water. After drying, one hundred microliters of 0.4% Sulphorhodamine B (SRB) in 1% acetic acid was added to each plate including the Tzero plate and incubated for 10 minutes at room temperature. After 5 additional washes with 1% acetic acid, plates were allowed to dry. One hundred microliters of Trizma base was added to each well and plates were read at 515 nm.
(§4) Percent of growth was calculated by the following formulas: [Ti/C]×100, where: Tz=absorbance readings for wells at time zero without treatment; C=absorbance readings of untreated cells (without treatment); and Ti=absorbance reading of wells with treatment.

NCI-H23 = test: SRB growth assay, NCI-H23; format: cell-based; conditions: Homo sapiens, NCI-H23 (Non-Small Cell Lung), 48 hours, read-out: Percent viability
Excerpt: as §1, §2, §3, §4

NCI-H460 = test: SRB growth assay, NCI-H460; format: cell-based; conditions: Homo sapiens, NCI-H460 (Non-Small Cell Lung), 48 hours, read-out: Percent viability
Excerpt: as §1, §2, §3, §4

KM12 = test: SRB growth assay, KM12; format: cell-based; conditions: Homo sapiens, KM12 (Colon), 48 hours, read-out: Percent viability
Excerpt: as §1, §2, §3, §4

LOX IMVI = test: SRB growth assay, LOX IMVI; format: cell-based; conditions: Homo sapiens, LOX IMVI (Melanoma), 48 hours, read-out: Percent viability
Excerpt: as §1, §2, §3, §4

SK-MEL-5 = test: SRB growth assay, SK-MEL-5; format: cell-based; conditions: Homo sapiens, SK-MEL-5 (Melanoma), 48 hours, read-out: Percent viability
Excerpt: as §1, §2, §3, §4

OVCAR-4 = test: SRB growth assay, OVCAR-4; format: cell-based; conditions: Homo sapiens, OVCAR-4 (Ovarian), 48 hours, read-out: Percent viability
Excerpt: as §1, §2, §3, §4

OVCAR-5 = test: SRB growth assay, OVCAR-5; format: cell-based; conditions: Homo sapiens, OVCAR-5 (Ovarian), 48 hours, read-out: Percent viability
Excerpt: as §1, §2, §3, §4

SK-OV-3 = test: SRB growth assay, SK-OV-3; format: cell-based; conditions: Homo sapiens, SK-OV-3 (Ovarian), 48 hours, read-out: Percent viability
Excerpt: as §1, §2, §3, §4

786-0 = test: SRB growth assay, 786-0; format: cell-based; conditions: Homo sapiens, 786-0 (Renal), 48 hours, read-out: Percent viability
Excerpt: as §1, §2, §3, §4

RXF 393 = test: SRB growth assay, RXF 393; format: cell-based; conditions: Homo sapiens, RXF 393 (Renal), 48 hours, read-out: Percent viability
Excerpt: as §1, §2, §3, §4

SN12C = test: SRB growth assay, SN12C; format: cell-based; conditions: Homo sapiens, SN12C (Renal), 48 hours, read-out: Percent viability
Excerpt: as §1, §2, §3, §4

MCF7 = test: SRB growth assay, MCF7; format: cell-based; conditions: Homo sapiens, MCF7 (Breast), 48 hours, read-out: Percent viability
Excerpt: as §1, §2, §3, §4

MDA-MB-468 = test: SRB growth assay, MDA-MB-468; format: cell-based; conditions: Homo sapiens, MDA-MB-468 (Breast), 48 hours, read-out: Percent viability
Excerpt: as §1, §2, §3, §4

HS 578T = test: SRB growth assay, HS 578T; format: cell-based; conditions: Homo sapiens, HS 578T (Breast), 48 hours, read-out: Percent viability
Excerpt: as §1, §2, §3, §4

NCI-60 Cell Lines = test: Inhibiting growth of NCI-60 cell lines (panel summary); format: cell-based, human; conditions: 10 μM, compared to doxorubicin
Procedure: NUCL 381-3 and NUCL 383-3 (referred to as “NUCC-00381” and “NUCC-000383” above, respectively) were administered to a variety of cancer cell lines in order to test their ability to inhibit cell growth as compared to doxorubicin.
as §1
The cells were cultured in RPMI1640 media supplemented with 10% Fetal Bovine Serum (FBS), 2 mM glutamine and with 5% CO2 and 37° C. […]
Cells were plated in 96 well plates. […] One hundred microliters of Trizma base was added to each well and plates were read at 515 nm.
as §4

[1] = system: acute leukemia cell lines (THP-1, K562, Kasumi-1, and U937); test: Inhibition of viability of acute leukemia cell lines; format: cell-based, human; conditions: THP-1, K562, Kasumi-1, U937
Procedure: Compounds 381, 383, 409 (as test compounds) and Compound 501 (as a negative control) were administered to a variety of acute leukemia cell lines (THP-1. K562, Kasumi-1, and U937) in order to test their ability to inhibit cell growth as compared to 8-amino adenosine (8NH2-Ado) and 8-chloro adenosine (8Cl-Ado) (as positive controls) as in the previous Examples.

| SMILES | viability at 10 µM (HOP-62) | viability at 10 µM (NCI-H23) | viability at 10 µM (NCI-H460) | viability at 10 µM (KM12) | viability at 10 µM (LOX IMVI) | viability at 10 µM (SK-MEL-5) | viability at 10 µM (OVCAR-4) | viability at 10 µM (OVCAR-5) | viability at 10 µM (SK-OV-3) | viability at 10 µM (786-0) | viability at 10 µM (RXF 393) | viability at 10 µM (SN12C) | viability at 10 µM (MCF7) | viability at 10 µM (MDA-MB-468) | viability at 10 µM (HS 578T) | cell viability across NCI-60 cell lines (NCI-60 Cell Lines) | cell viability ([1]; FIGS. 11-14) | inhibitory activity relative to positive controls ([1]; versus 8NH2-Ado and 8Cl-Ado) |
| --- | --- | --- | --- | --- | --- | --- | --- | --- | --- | --- | --- | --- | --- | --- | --- | --- | --- | --- |
| CS(=O)(=O)N1CCC(Cn2cc(C(F)(F)F)c3c(Cl)ncnc32)CC1 [NUCC-0000383] | 88.5% | 46.1% | 69.1% | 99.5% | 35.8% | 6.11% | 97% | 104% | 74.2% | 69.5% | 7.81% | 25.8% | 108% | 93.8% | 50.1% |  |  |  |
| COc1cccc2c1C(=O)c1c(O)c3c(c(O)c1C2=O)C[C@@](O)(C(=O)CO)C[C@@H]3O[C@H]1C[C@H](N)[C@H](O)[C@H](C)O1 [Doxorubicin, reference compound] | 19.7% | 27.6% | 35% | 71.8% | 24.4% | 7.01% | 103% | 57.1% | 47.8% | 17.6% | 8.68% | 45.4% | 69.1% | 45.8% | 51.5% |  |  |  |
| FC(F)(F)c1cn(CC2CCNCC2)c2ncnc(Cl)c12 [NUCC-0000381] | 15.7% | 42.3% | 26.4% | 31% | 26% | 100% | 53% | 76.8% | 56.5% | 94.2% | 12% | 42.1% | 89.8% | 102% | 53.9% | reduce cell viability for a number of cell lines | reduce cell viability significantly | inhibitory activities approaching those of 8NH2-Ado and 8Cl-Ado |
